# Tests used:
# [1] = test system: PANC-1 human pancreatic carcinoma cell line; experiment: cells; details: Homo sapiens, PANC-1, 72 h
# Outline: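 Cells seeded at 5,000/well, left 24 h drug-free, then exposed to test compounds for 72 h. Viability read by MTT reduction (MTT added for 8 h at 37° C, formazan dissolved in DMSO).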
# HT1080 tumors = experiment: Human fibrosarcoma (HT1080) orthotopically implanted in athymic nude mice, total diameter (tumor+leg) % T/C; assay type: in vivo
# Method: Female athymic nude mice (Harlan Laboratories Models, S.L. (Barcelona, Spain) were utilized for all experiments. Animals were housed in individually ventilated cages, up to ten per cage in a 12-hour light-dark cycle at 21-23° C. and 40-60% humidity. The mice were allowed free access to irradiated standard rodent diet and sterilized water. Animals were acclimated for at least 5 days prior to tumor implantation with a tumor cell suspension.
# HT1080 cells were grown at 37° C. with 5% CO2 in Minimum Essential Medium Eagle (MEME). Each animal was orthotopically implanted into gastroecnemius muscle by an intramuscular injection using 26G needle and a 1 cc syringe, with 5×10^6 HT1080 cells, from in vitro passage 9, suspended in serum free medium, without antibiotics.
# Total diameter (tumor+leg) measurements were determined by using digital caliper (Fowler Sylvac, S235PAT). This total diameter and animal body weights were measured 2-3 times per week starting from the first day of treatment.
# Treatment tolerability was assessed by monitoring body weight evolution, clinical signs as well as evidences of local damage in the injection site.
# PM01183 was provided in the form of vials of lyophilized PM01183 cake which was reconstituted with water for infusion to a concentration of 0.2 mg/mL. The PM01183 stock solution was further diluted in 5% glucose solution for injection to the dosing formulation concentrations. Dacarbazine was provided in the form of a solution prepared by diluting the product with 5% glucose solution for injection to the target final concentration.
# Dose level groups were administered either as single agents or in combination.
# Comparison of the median total diameter (tumor+leg) in the treatment groups (T) to the median total diameter (tumor+leg) in the control group (T/C×100%) was used for evaluation of the antitumor efficacy.
# H460 tumors = experiment: Human lung tumor xenografts (H460) in athymic nude mice, tumor volume % T/C
# HT-29 tumors = experiment: Human colorectal tumor xenografts (HT-29) in athymic nude mice, tumor volume % T/C
# [2] = PM01183 0.135 mg/kg iv days 0,7
smiles,measurement,setting,value
COc1ccc2[nH]c3c(c2c1)CCN[C@]31CS[C@@H]2c3c(OC(C)=O)c(C)c4c(c3[C@H](COC1=O)N1[C@@H]2[C@H]2c3c(cc(C)c(OC)c3O)C[C@@H]([C@@H]1O)N2C)OCO4 [PM01183],IC50,[1],2.8 nM
same,% T/C on day 0,HT1080 tumors; PM01183 0.045 mg/kg,100%
same,% T/C on day 2,HT1080 tumors; PM01183 0.045 mg/kg,77.8%
same,% T/C on day 4,HT1080 tumors; PM01183 0.045 mg/kg,74.3%
same,% T/C on day 7,HT1080 tumors; PM01183 0.045 mg/kg,94.2%
same,% T/C on day 9,HT1080 tumors; PM01183 0.045 mg/kg,80.0%
same,% T/C on day 11,HT1080 tumors; PM01183 0.045 mg/kg,74.0%
same,% T/C on day 14,HT1080 tumors; PM01183 0.045 mg/kg,80.5%
same,% T/C on day 16,HT1080 tumors; PM01183 0.045 mg/kg,91.1%
same,% T/C on day 0,HT1080 tumors; PM01183 0.09 mg/kg,100%
same,% T/C on day 2,HT1080 tumors; PM01183 0.09 mg/kg,66.7%
same,% T/C on day 4,HT1080 tumors; PM01183 0.09 mg/kg,57.1%
same,% T/C on day 7,HT1080 tumors; PM01183 0.09 mg/kg,65.4%
same,% T/C on day 9,HT1080 tumors; PM01183 0.09 mg/kg,48.0%
same,% T/C on day 11,HT1080 tumors; PM01183 0.09 mg/kg,42.7%
same,% T/C on day 14,HT1080 tumors; PM01183 0.09 mg/kg,45.8%
same,% T/C on day 16,HT1080 tumors; PM01183 0.09 mg/kg,56.4%
same,"% T/C (median total diameter, tumor+leg) on day 9",HT1080 tumors; [2],36.0%
same,"% T/C (median total diameter, tumor+leg) on day 11",HT1080 tumors; [2],30.2%
same,"% T/C (median total diameter, tumor+leg) on day 14",HT1080 tumors; [2],33.0%
same,"% T/C (median total diameter, tumor+leg) on day 16",HT1080 tumors; [2],41.9%
same,% T/C on day 0,HT1080 tumors; PM01183 0.135 mg/kg,100%
same,% T/C on day 2,HT1080 tumors; PM01183 0.135 mg/kg,63.0%
same,% T/C on day 4,HT1080 tumors; PM01183 0.135 mg/kg,62.9%
same,% T/C on day 7,HT1080 tumors; PM01183 0.135 mg/kg,48.1%
same,% T/C on day 9,HT1080 tumors; PM01183 0.135 mg/kg,36.0%
same,% T/C on day 11,HT1080 tumors; PM01183 0.135 mg/kg,30.2%
same,% T/C on day 14,HT1080 tumors; PM01183 0.135 mg/kg,33.0%
same,% T/C on day 16,HT1080 tumors; PM01183 0.135 mg/kg,41.9%
same,"% T/C (median total diameter, tumor+leg) on day 9","HT1080 tumors; PM01183 0.18 mg/kg iv days 0,7",26.7%
same,"% T/C (median total diameter, tumor+leg) on day 11","HT1080 tumors; PM01183 0.18 mg/kg iv days 0,7",11.5%
same,"% T/C (median total diameter, tumor+leg) on day 14","HT1080 tumors; PM01183 0.18 mg/kg iv days 0,7",21.2%
same,"% T/C (median total diameter, tumor+leg) on day 16","HT1080 tumors; PM01183 0.18 mg/kg iv days 0,7",30.6%
same,% T/C on day 0,HT1080 tumors; PM01183 0.18 mg/kg,100%
same,% T/C on day 2,HT1080 tumors; PM01183 0.18 mg/kg,59.3%
same,% T/C on day 4,HT1080 tumors; PM01183 0.18 mg/kg,40.0%
same,% T/C on day 7,HT1080 tumors; PM01183 0.18 mg/kg,26.9%
same,% T/C on day 9,HT1080 tumors; PM01183 0.18 mg/kg,26.7%
same,% T/C on day 11,HT1080 tumors; PM01183 0.18 mg/kg,11.5%
same,% T/C on day 14,HT1080 tumors; PM01183 0.18 mg/kg,21.2%
same,% T/C on day 16,HT1080 tumors; PM01183 0.18 mg/kg,30.6%
same,% T/C on day 0,H460 tumors; PM01183 0.045 mg/kg,108.3%
same,% T/C on day 2,H460 tumors; PM01183 0.045 mg/kg,78.7%
same,% T/C on day 5,H460 tumors; PM01183 0.045 mg/kg,61.2%
same,% T/C on day 7,H460 tumors; PM01183 0.045 mg/kg,67.2%
same,% T/C on day 9,H460 tumors; PM01183 0.045 mg/kg,78.8%
same,% T/C on day 12,H460 tumors; PM01183 0.045 mg/kg,87.9%
same,% T/C on day 0,H460 tumors; PM01183 0.09 mg/kg,116.9%
same,% T/C on day 2,H460 tumors; PM01183 0.09 mg/kg,83.1%
same,% T/C on day 5,H460 tumors; PM01183 0.09 mg/kg,83.9%
same,% T/C on day 7,H460 tumors; PM01183 0.09 mg/kg,76.9%
same,% T/C on day 9,H460 tumors; PM01183 0.09 mg/kg,80.6%
same,% T/C on day 12,H460 tumors; PM01183 0.09 mg/kg,84.9%
same,% T/C on day 0,H460 tumors; PM01183 0.135 mg/kg,117.6%
same,% T/C on day 2,H460 tumors; PM01183 0.135 mg/kg,77.4%
same,% T/C on day 5,H460 tumors; PM01183 0.135 mg/kg,67.5%
same,% T/C on day 7,H460 tumors; PM01183 0.135 mg/kg,71.7%
same,% T/C on day 9,H460 tumors; PM01183 0.135 mg/kg,66.7%
same,% T/C on day 12,H460 tumors; PM01183 0.135 mg/kg,52.9%
same,% T/C on day 0,H460 tumors; PM01183 0.18 mg/kg,114.4%
same,% T/C on day 2,H460 tumors; PM01183 0.18 mg/kg,79.6%
same,% T/C on day 5,H460 tumors; PM01183 0.18 mg/kg,74.7%
same,% T/C on day 7,H460 tumors; PM01183 0.18 mg/kg,75.0%
same,% T/C on day 9,H460 tumors; PM01183 0.18 mg/kg,69.1%
same,% T/C on day 12,H460 tumors; PM01183 0.18 mg/kg,64.9%
same,% T/C on day 0,HT-29 tumors; PM01183 0.045 mg/kg,99.8%
same,% T/C on day 3,HT-29 tumors; PM01183 0.045 mg/kg,103.7%
same,% T/C on day 5,HT-29 tumors; PM01183 0.045 mg/kg,100.6%
same,% T/C on day 7,HT-29 tumors; PM01183 0.045 mg/kg,111.1%
same,% T/C on day 10,HT-29 tumors; PM01183 0.045 mg/kg,135.8%
same,% T/C on day 12,HT-29 tumors; PM01183 0.045 mg/kg,125.1%
same,% T/C on day 14,HT-29 tumors; PM01183 0.045 mg/kg,109.3%
same,% T/C on day 0,HT-29 tumors; PM01183 0.09 mg/kg,98.4%
same,% T/C on day 3,HT-29 tumors; PM01183 0.09 mg/kg,100.9%
same,% T/C on day 5,HT-29 tumors; PM01183 0.09 mg/kg,88.7%
same,% T/C on day 7,HT-29 tumors; PM01183 0.09 mg/kg,121.9%
same,% T/C on day 10,HT-29 tumors; PM01183 0.09 mg/kg,129.8%
same,% T/C on day 12,HT-29 tumors; PM01183 0.09 mg/kg,114.1%
same,% T/C on day 14,HT-29 tumors; PM01183 0.09 mg/kg,109.4%
same,% T/C on day 17,HT-29 tumors; PM01183 0.09 mg/kg,116.1%
same,% T/C on day 20,HT-29 tumors; PM01183 0.09 mg/kg,93.4%
same,% T/C on day 0,HT-29 tumors; PM01183 0.135 mg/kg,98.4%
same,% T/C on day 3,HT-29 tumors; PM01183 0.135 mg/kg,106.4%
same,% T/C on day 5,HT-29 tumors; PM01183 0.135 mg/kg,95.3%
same,% T/C on day 7,HT-29 tumors; PM01183 0.135 mg/kg,116.6%
same,% T/C on day 10,HT-29 tumors; PM01183 0.135 mg/kg,115.2%
same,% T/C on day 12,HT-29 tumors; PM01183 0.135 mg/kg,119.1%
same,% T/C on day 14,HT-29 tumors; PM01183 0.135 mg/kg,121.5%
same,% T/C on day 17,HT-29 tumors; PM01183 0.135 mg/kg,133.1%
same,% T/C on day 20,HT-29 tumors; PM01183 0.135 mg/kg,105.2%
same,% T/C on day 0,HT-29 tumors; PM01183 0.18 mg/kg,100.4%
same,% T/C on day 3,HT-29 tumors; PM01183 0.18 mg/kg,108.4%
same,% T/C on day 5,HT-29 tumors; PM01183 0.18 mg/kg,86.5%
same,% T/C on day 7,HT-29 tumors; PM01183 0.18 mg/kg,101.1%
same,% T/C on day 10,HT-29 tumors; PM01183 0.18 mg/kg,116.5%
same,% T/C on day 12,HT-29 tumors; PM01183 0.18 mg/kg,115.4%
same,% T/C on day 14,HT-29 tumors; PM01183 0.18 mg/kg,123.4%
same,% T/C on day 17,HT-29 tumors; PM01183 0.18 mg/kg,86.7%
same,% T/C on day 20,HT-29 tumors; PM01183 0.18 mg/kg,77.5%

# Source: patent US11590129B2, “Combination therapy with an antitumor alkaloid” (PHARMA MAR, S.A., priority 2010, dated 2023)
